From patent EP4725941A1, “ARYLAMIDE DERIVATIVE HAVING ANTITUMOR ACTIVITY” (priority 2020, dated 2021)
Read-outs that look alike come from different tables or passages of the source.

Assays:
BRAF = biological target: T1, BRAF (Homo sapiens, UniProt P15056); assay: BRAF-inhibiting activity, time-resolved fluorescence-fluorescence resonance energy transfer assay; format: biochemical
T1 construct: purchased Eurofins Genomics KK; (BRAF); Thermo Fisher Scientific Inc. (MEK1)
Description: The BRAF-inhibiting activity of the compounds listed in Table 3 below was evaluated by the time-resolved fluorescence-fluorescence resonance energy transfer assay as described below.

MEK1 = biological target: T2, MEK1 (Homo sapiens, UniProt Q02750); assay: MEK1-inhibiting activity, fluorescent polarization method (CRAF/MEK1/ERK2 cascade, IMAP); format: biochemical
T2 construct: purchased Thermo Fisher Scientific Inc. (MEK1, CRAF); Carna Biosciences, Inc. (ERK2)
Description: The MEK1-inhibiting activity of the compounds listed in Table 3 below were evaluated by the fluorescent polarization method as described below.

Calu-6 = assay: Cell proliferation-inhibiting activity (ATP in viable cells, CellTiter-Glo), Calu-6; format: cell-based, human; conditions: Calu-6, 96 h, read-out: Calu-6 IC50
A549 = assay: Cell proliferation-inhibiting activity (ATP in viable cells, CellTiter-Glo), A549; format: cell-based, human; conditions: A549, 96 h, read-out: A549 IC50
[1] = Human liver microsome stability; format: in vitro ADME; conditions: human liver microsomes, pH 7.4
NCI-H2122 = assay: Cell proliferation-inhibiting activity (ATP in viable cells, CellTiter-Glo), NCI-H2122; format: cell-based, human; conditions: NCI-H2122, 96 h, read-out: NCI-H2122 IC50
[2] = human lung cancer cells, 4 days

T2 sequence (Q02750 whole entry): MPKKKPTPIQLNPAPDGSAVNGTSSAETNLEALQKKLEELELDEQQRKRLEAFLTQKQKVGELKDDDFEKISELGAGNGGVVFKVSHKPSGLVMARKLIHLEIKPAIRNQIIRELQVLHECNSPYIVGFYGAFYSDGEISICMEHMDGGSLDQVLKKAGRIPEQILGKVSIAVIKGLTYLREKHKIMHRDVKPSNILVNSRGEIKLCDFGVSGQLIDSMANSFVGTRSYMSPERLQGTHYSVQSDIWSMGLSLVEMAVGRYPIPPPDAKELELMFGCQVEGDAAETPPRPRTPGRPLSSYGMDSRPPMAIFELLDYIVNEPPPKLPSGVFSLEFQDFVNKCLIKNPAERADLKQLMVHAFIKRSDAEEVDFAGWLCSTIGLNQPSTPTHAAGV
T1 sequence (P15056 417-766 limits assumed): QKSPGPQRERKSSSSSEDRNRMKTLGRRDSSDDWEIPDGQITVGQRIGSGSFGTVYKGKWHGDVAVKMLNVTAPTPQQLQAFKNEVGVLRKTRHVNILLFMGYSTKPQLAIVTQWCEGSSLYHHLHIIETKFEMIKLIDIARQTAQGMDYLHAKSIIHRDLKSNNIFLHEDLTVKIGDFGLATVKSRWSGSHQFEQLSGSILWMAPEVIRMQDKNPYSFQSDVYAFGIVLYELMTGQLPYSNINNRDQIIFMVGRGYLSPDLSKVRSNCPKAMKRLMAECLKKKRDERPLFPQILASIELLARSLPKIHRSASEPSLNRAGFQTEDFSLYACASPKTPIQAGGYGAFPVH

SMILES | IC50 (BRAF; read-out: BRAF IC50; Table 3) [nM] | IC50 (MEK1; Table 3, read-out: MEK1 IC50) [nM] | IC50 (Calu-6; [2]) [nM] | IC50 (A549; [2]) [nM] | microsomal CLint at 0.99 µM [1] [µL/min/mg] | IC50 (NCI-H2122; [2]) [nM] | IC50 (BRAF; Table 3; read-out: BRAF IC50) [nM] | IC50 (Calu-6; Homo sapiens) [nM] | IC50 (A549; Homo sapiens) [nM] | IC50 (NCI-H2122; Homo sapiens) [nM] | IC50 (MEK1) [nM]
CC(C)(C)ONC(=O)c1cc(Cc2cccc(NS(=O)(=O)NC3CC3)c2F)c(F)c(F)c1Nc1ccc(I)cc1Cl [Compound E-12, 2-(2-Chloro-4-iodoanilino)-5-[[3-(cyclopropylsulfamoylamino)-2-fluor ophenyl]methyl]-3,4-difluoro-N-[(2-methylpropan-2-yl)oxy]benzamide] | 17 | 260 | 8 | 3 | 160 | 2 | – | – | – | – | –
O=C(NC1CC1)c1cc(Cc2ccnc(NS(=O)(=O)NC3CC3)c2F)c(F)c(F)c1Nc1ccc(I)cc1F [Compound A-5, N-Cyclopropyl-5-[[2-(cyclopropylsulfamoylamino)-3-fluoropyridin-4-yl]methyl]-3,4-difluoro-2-(2-fluoro-4-iodoanilino)benzamide] | 5 | 10 | 12 | 5 | 36 | 1 | – | – | – | – | –
CC1(S(=O)(=O)Nc2cccc(Cc3cc(C(N)=O)c(Nc4ccc(I)cc4F)c(F)c3F)c2F)CC1 [Compound E-16, 3,4-Difluoro-2-(2-fluoro-4-iodoanilino)-5-[[2-fluoro-3-[(1-methylcyclopropyl)sulfonylamino]phenyl]methyl]benzamide] | 12 | 352 | 87 | 33 | < 1 | 7 | – | – | – | – | –
CCS(=O)(=O)Nc1cccc(Cc2cc(C(=O)NOC(C)(C)C)c(Nc3ccc(I)cc3F)c(F)c2F)c1F [Compound E-2, 5-[[3-(Ethylsulfonylamino)-2-fluorophenyl]methyl]-3,4-difluoro-2-(2-fluoro-4-iodoanilino)-N-[(2-methylpropan-2-yl)oxy]benzamide] | 22 | 86 | 19 | 6 | 42 | 2 | – | – | – | – | –
Cn1c(Nc2ccc(I)cc2F)c(C(=O)NOC(C)(C)C)cc(Cc2cccc(NS(=O)(=O)C3(C)CC3)c2F)c1=O [Compound K-12, 2-(2-Fluoro-4-iodoanilino)-5-[2-fluoro-3-[(1-methylcyclopropyl)sulfonylamino]phenyl]methyl]-1-methyl-N-[(2-methylpropan-2-yl)oxyl-6-oxo pyridine-3-carboxamide] | 14 | 10 | 27 | 7 | 546 | 6 | – | – | – | – | –
Cn1c(Nc2ccc(C3CC3)cc2F)c(C(N)=O)cc(Cc2ccnc(NS(=O)(=O)NC3CC3)c2F)c1=O [Compound J-4, 2-(4-Cyclopropyl-2-fluoroanilino)-5-[[2-(cyclopropylsulfamoylamino)-3-fluoropyridin-4-yl]methyl]-1-methyl-6-oxopyridine-3-carboxamide] | – | 877 | – | – | 67 | – | 14 | > 2000 | > 2000 | 1060 | –
NC(=O)c1cc(Cc2ccnc(NS(=O)(=O)NCC3CC3)c2F)c(F)c(F)c1Nc1ccc(I)cc1F [Compound A-36] | 5 | 74 | 61 | 26 | 18 | 17 | – | – | – | – | –
CCNS(=O)(=O)Nc1nccc(Cc2cc(C(N)=O)c(Nc3ccc(I)cc3F)c(F)c2F)c1F [Compound A-40, 5-[[2-(ethylsulfamoylamino)-3-fluoropyridin-4-yl]methyl]-3,4-d ifluoro-2-(2-fluoro-4-iodoanilino)benzamide] | 2 | 19 | 12 | 4 | 2 | 2 | – | – | – | – | –
NC(=O)c1cc(Cc2ccnc(NS(=O)(=O)NC3CC3)c2F)c(F)c(F)c1Nc1ccc(I)cc1Cl [Compound B-11, 2-(2-Chloro-4-iodoanilino)-5-[[2-(cyclopropylsulfamoylamino)-3-fluor opyridin-4-yl]methyl]-3,4-difluorobenzamide] | 3 | 19 | 43 | 18 | 26 | 16 | – | – | – | – | –
CONC(=O)c1cc(Cc2cccc(NS(=O)(=O)C3(C)CC3)c2F)c(F)c(F)c1Nc1ccc(I)cc1F [Compound E-5, 3,4-Difluoro-2-(2-fluoro-4-iodoanilino)-5-[[2-fluoro-3-[(1-methylcyclopropyl)sulfonylamino]phenyl]methyl]-N-methoxybenzamide] | 8 | 19 | 17 | 5 | 78 | 3 | – | – | – | – | –
CONC(=O)c1cc(Cc2cccc(NS(=O)(=O)C3(C)CC3)c2F)c(=O)n(C)c1Nc1ccc(I)cc1F [Compound K-7, 2-(2-Fluoro-4-iodoanilino)-5-[[2-fluoro-3-[(1-methylcyclopropyl)sulfonylamino]phenyl]methyl]-N-methoxy-1-methyl-6-oxopyridine-3-carboxamide] | 14 | 31 | 27 | 9 | 357 | 7 | – | – | – | – | –
CNS(=O)(=O)Nc1cccc(Cc2cc(C(N)=O)c(Nc3ccc(I)cc3F)n(C)c2=O)c1F [Compound K-1, 2-(2-Fluoro-4-iodoanilino)-5-[[2-fluoro-3-(methylsulfamoylamino)phenyl]methyl]-1-methyl-6-oxopyridine-3-carboxamide] | 3 | 55 | 14 | 3 | 97 | 4 | – | – | – | – | –
CC1(NS(=O)(=O)Nc2nccc(Cc3cc(C(N)=O)c(Nc4ccc(I)cc4F)c(F)c3F)c2F)CCC1 [Compound A-35, 3,4-difluoro-2-(2-fluoro-4-iodoanilino)-5-[[3-fluoro-2-[(1-methylcyclobutyl)sulfamoylamino]pyridin-4-yl]methyl]benzamide] | 28 | 66 | 34 | 21 | 15 | 4 | – | – | – | – | –
CNS(=O)(=O)Nc1nccc(Cc2cc(C(N)=O)c(Nc3ccc(I)cc3F)n(C)c2=O)c1F [Compound J-1, 2-(2-fluoro-4-iodoanilino)-5-[[3-fluoro-2-(methylsulfamoylamino)pyridin-4-yl]methyl]-1-methyl-6-oxopyridine-3-carboxamide] | 4 | 58 | 29 | 38 | 11 | 8 | – | – | – | – | –
CNS(=O)(=O)Nc1nccc(Cc2cc(C(=O)N[C@@H]3C[C@H]3C)c(Nc3ccc(I)cc3F)c(F)c2F)c1F (racemic) [Compound B-5, 3,4-Difluoro-2-(2-fluoro-4-iodoanilino)-5-[[3-fluoro-2-(methylsulfamoylamino)pyridin-4-yl]methyl]-N-[(1R, 2R)-(+/-)-2-methylcyclopropyl]benzamide (racemate)] | – | – | 29 | 7 | 22 | 5 | 6 | – | – | – | 93
CCNS(=O)(=O)Nc1nccc(Cc2cc(C(=O)NC3CC3)c(Nc3ccc(I)cc3F)c(F)c2F)c1F [Compound A-4, N-cyclopropyl-5-[[2-(ethylsulfamoylamino)-3-fluoropyridin-4-yl]methyl]-3,4-difluoro-2-(2-fluoro-4-iodoanilino)benzamide] | 2 | 17 | 7 | 5 | 21 | 1 | – | – | – | – | –
NC(=O)c1cc(Cc2ccnc(NS(=O)(=O)NCCF)c2F)c(F)c(F)c1Nc1ccc(I)cc1F [Compound A-42, 3,4-difluoro-5-[[3-fluoro-2-(2-fluoroethylsulfamoylamino)pyridin-4-yl]methyl]-2-(2-fluoro-4-iodoanilino)benzamide] | 6 | 18 | 68 | 9 | 6 | 7 | – | – | – | – | –
CNS(=O)(=O)Nc1nccc(Cc2cc(C(=O)NOC)c(Nc3ccc(C4CC4)cc3F)c(F)c2F)c1F [Compound G-2, 2-(4-Cyclopropyl-2-fluoroanilino)-3,4-difluoro-5-[[3-fluoro-2-(methylsulfamoylamino)pyridin-4-yl]methyl]-N-methoxybenzamide] | 3 | 6 | 13 | 2 | 31 | 0.4 | – | – | – | – | –
CNS(=O)(=O)Nc1nccc(Cc2cc(C(=O)NC3CC3C)c(Nc3ccc(I)cc3F)c(F)c2F)c1F (mixture of isomers) [Compound B-3, 3,4-Difluoro-2-(2-fluoro-4-iodoanilino)-5-[[3-fluoro-2-(methylsulfamoylamino)pyridin-4-yl]methyl]-N-(2-methylcyclopropyl)benzamide (mixture of 4 isomers)] | 4 | 82 | 14 | 2 | 22 | 1 | – | – | – | – | –
